Data published in patent US7094561B2, “Method of monitoring the menstrual cycle and/or pregnancy in a female” (University of Guelph, priority 2000, dated 2006).

Key:
human lymphocytes = test: Effect of blood collection anti-coagulant on adhesion of human lymphocytes to LN from pregnant mice; assay type: cell-based; conditions: blood collected into the anti-coagulant
Protocol: Male and female subjects of legal age and in good health were recruited to donate up to 30 ml of blood, using venipuncture into evacuated, sterile blood collection tubes. All subjects were informed about the risks of participation in this study and signed approved informed consent forms. The blood was layered onto an equal volume of Histopaque 1.077 (Sigma) and centrifuged at 400×g for 30 min at RT according to manufacturers instructions. The cells at the interface were collected, washed thrice and counted.
The effects of anti-coagulants on adhesive properties of isolated PBL were assessed. Ten ml of blood was collected by venipuncture (40 ml collected per subject) into sterile evacuated tubes containing either Acid Citrate Dextrose (ACD), EDTA, Sodium Citrate, or heparin. Lymphocytes were isolated as described above and applied to sections of LN from pregnant mice. The sections were assessed for lymphocyte adhesion by microscopy.

[1] = system: uterine artery and decidua; conditions: alymphoid mice, daily 100–1000 IU/6 days; cited from earlier work
uterine tissue = test: Adhesion of CD56-labeled human PBL to uterine tissue from hormone-treated ovariectomized mice; assay type: in vivo, mouse; conditions: for adhesion of CD56bright human lymphocytes to uterine tissue: uteri from Ovx mice treated with hormone, versus placebo-treated Ovx or virgin
Excerpt: C57BI/6J (Jackson Laboratory, Bar Harbor, Me.) and Balb/c (Taconic, Germantown, N.Y.) mice, aged 7–8 wk were studied. Some females were used for timed matings with the morning of the copulation plug designated gd 0. Other females (n=34) were surgically ovariectomized under Avertin anaesthesia (24). Females were rested 6 days and then received daily subcutaneous injections of either hormone dissolved in sesame oil or sesame oil alone between 9.00–11.00 a.m. as indicated in FIG. 2.^81-84 Some of the Ovx hormone-treated mice also had 10 μl sterile sesame oil injected into a uterine horn to induce decidualization 48 h prior to euthanasia. Ovx mice were euthanized 24 hours after receiving their last injection and vaginal smears were collected and stained with Wright-Giemsa to confirm treatment success. Non-pregnant (NP) controls were virgin females who had never been paired with males. All procedures were performed under appropriate animal utilization protocols. The following samples were collected from each mouse and embedded in OCT (Miles Laboratories) for cryosectioning: i) a pool of 10–12 PLN from subcutaneous and intermuscular sites; ii) a pool of 10–12 intestinal PP; iii) the entire pancreas; and iv) the uterus. For some experiments, the median iliac lymph nodes that drain the pelvic organs, including the uterus, were also dissected. Non-decidualized uteri were trimmed at the ovarian and cervical ends, then incised longitudinally along one side on an axis midway between the mesometrial and anti-mesometrial aspects. The mesometrium (the mesentery suspending the uterus, also known as the broad ligament) was not removed and served as a positional landmark during analyses. For embedding, samples were oriented to produce full thickness longitudinal sections that included both antimesometrial and mesometrial sides. […] The cell suspensions evaluated for adhesive interactions with endothelium were human peripheral blood lymphocytes (PBL) isolated from random (female and male) normal donor buffy coat leukocyte concentrates (American Red Cross, Rochester, N.Y.);^85,68 and TK-1 cells (an alpha integrin^high, L-selectin^low mouse T lymphoma cell line).^85 In selected experiments, human PBL were cultured 6 hr at 37° C. or 40° C. before being applied to tissue sections, as previously described^12. […] Following removal of non adherent cells, glutaraldehyde-fixed specimens were stained with 0.5% toluidine blue and adhesion was scored on 300–500 HEV/PLN or PP specimen or equivalent numbers of small vessels in pancreatic tissue. When CD56-pre-labeled cells were used, fluorescent cells were quantified in 10 high power fields (HPF; one HPF=5 mm^2) at 200× magnification using an Olympus BH2/RFL fluorescence microscope (Olympus Optical, Tokyo, Japan) (10;29). […]

[2] = system: high endothelial venules (HEV) of peripheral lymph nodes (PLN); test: Adhesion under shear of human PBL to PLN HEV in frozen sections from hormone-treated ovariectomized mice; assay type: in vivo, mouse; conditions: for L-selectin-dependent and α4 integrin-dependent lymphocyte adhesion to endothelium of secondary lymphoid tissues, compared to pregnancy: hormone-treated Ovx mice versus pregnant mice, shear flow
Excerpt: C57BI/6J (Jackson Laboratory, Bar Harbor, Me.) and Balb/c (Taconic, Germantown, N.Y.) mice, aged 7–8 wk were studied. Some females were used for timed matings with the morning of the copulation plug designated gd 0. Other females (n=34) were surgically ovariectomized under Avertin anaesthesia (24). Females were rested 6 days and then received daily subcutaneous injections of either hormone dissolved in sesame oil or sesame oil alone between 9.00–11.00 a.m. as indicated in FIG. 2.^81-84 Some of the Ovx hormone-treated mice also had 10 μl sterile sesame oil injected into a uterine horn to induce decidualization 48 h prior to euthanasia. Ovx mice were euthanized 24 hours after receiving their last injection and vaginal smears were collected and stained with Wright-Giemsa to confirm treatment success. Non-pregnant (NP) controls were virgin females who had never been paired with males. All procedures were performed under appropriate animal utilization protocols. The following samples were collected from each mouse and embedded in OCT (Miles Laboratories) for cryosectioning: i) a pool of 10–12 PLN from subcutaneous and intermuscular sites; ii) a pool of 10–12 intestinal PP; iii) the entire pancreas; and iv) the uterus. For some experiments, the median iliac lymph nodes that drain the pelvic organs, including the uterus, were also dissected. Non-decidualized uteri were trimmed at the ovarian and cervical ends, then incised longitudinally along one side on an axis midway between the mesometrial and anti-mesometrial aspects. The mesometrium (the mesentery suspending the uterus, also known as the broad ligament) was not removed and served as a positional landmark during analyses. For embedding, samples were oriented to produce full thickness longitudinal sections that included both antimesometrial and mesometrial sides. Uteri from gd 3 were flushed for blastocysts to confirm pregnancy. The cell suspensions evaluated for adhesive interactions with endothelium were human peripheral blood lymphocytes (PBL) isolated from random (female and male) normal donor buffy coat leukocyte concentrates (American Red Cross, Rochester, N.Y.);^85,68 and TK-1 cells (an alpha integrin^high, L-selectin^low mouse T lymphoma cell line).^85 In selected experiments, human PBL were cultured 6 hr at 37° C. or 40° C. before being applied to tissue sections, as previously described^12. In all assays, some cell aliquots were incubated with function blocking mAb specific for human L-selectin (DREG-56, American Type Cell Collection [ATCC], Manassas, Va., 10 μg/ml) or human alpha4 integrin (HP2/1, Coulter Immunology, Hialeah, Fla., 10 μg/ml). To identify adherent human NK cells, PBL aliquots were pre-labeled with anti-CD56 mAb (NKG1, Coulter Immunology, diluted 1:100) followed by rabbit anti-mouse Ig-rhodamine isothiocynate (RITC) Ab as described previously (10;29). Control aliquots were treated with the secondary reagent alone. […] Following removal of non adherent cells, glutaraldehyde-fixed specimens were stained with 0.5% toluidine blue and adhesion was scored on 300–500 HEV/PLN or PP specimen or equivalent numbers of small vessels in pancreatic tissue. When CD56-pre-labeled cells were used, fluorescent cells were quantified in 10 high power fields (HPF; one HPF=5 mm^2) at 200× magnification using an Olympus BH2/RFL fluorescence microscope (Olympus Optical, Tokyo, Japan) (10;29). […]

pancreas endothelium = test: Adhesion of PBL or TK-1 cells to pancreas endothelium from hormone-treated ovariectomized mice; assay type: in vivo, mouse; conditions: tissue from hormone-treated Ovx mice
Excerpt: C57BI/6J (Jackson Laboratory, Bar Harbor, Me.) and Balb/c (Taconic, Germantown, N.Y.) mice, aged 7–8 wk were studied. Some females were used for timed matings with the morning of the copulation plug designated gd 0. Other females (n=34) were surgically ovariectomized under Avertin anaesthesia (24). Females were rested 6 days and then received daily subcutaneous injections of either hormone dissolved in sesame oil or sesame oil alone between 9.00–11.00 a.m. as indicated in FIG. 2.^81-84 Some of the Ovx hormone-treated mice also had 10 μl sterile sesame oil injected into a uterine horn to induce decidualization 48 h prior to euthanasia. […]
The cell suspensions evaluated for adhesive interactions with endothelium were human peripheral blood lymphocytes (PBL) isolated from random (female and male) normal donor buffy coat leukocyte concentrates (American Red Cross, Rochester, N.Y.);^85,68 and TK-1 cells (an alpha integrin^high, L-selectin^low mouse T lymphoma cell line).^85 In selected experiments, human PBL were cultured 6 hr at 37° C. or 40° C. before being applied to tissue sections, as previously described^12. […] Following removal of non adherent cells, glutaraldehyde-fixed specimens were stained with 0.5% toluidine blue and adhesion was scored on 300–500 HEV/PLN or PP specimen or equivalent numbers of small vessels in pancreatic tissue. […]

[3] = system: high endothelial venules (HEV) of Peyer's Patches (PP); test: Adhesion under shear of TK-1 cells to Peyer's Patch HEV from hormone-treated ovariectomized mice; assay type: in vivo, mouse; conditions: tissue from Ovx mice treated with hormone, versus placebo or virgin controls
Excerpt: C57BI/6J (Jackson Laboratory, Bar Harbor, Me.) and Balb/c (Taconic, Germantown, N.Y.) mice, aged 7–8 wk were studied. Some females were used for timed matings with the morning of the copulation plug designated gd 0. Other females (n=34) were surgically ovariectomized under Avertin anaesthesia (24). Females were rested 6 days and then received daily subcutaneous injections of either hormone dissolved in sesame oil or sesame oil alone between 9.00–11.00 a.m. as indicated in FIG. 2.^81-84 Some of the Ovx hormone-treated mice also had 10 μl sterile sesame oil injected into a uterine horn to induce decidualization 48 h prior to euthanasia. […] The cell suspensions evaluated for adhesive interactions with endothelium were human peripheral blood lymphocytes (PBL) isolated from random (female and male) normal donor buffy coat leukocyte concentrates (American Red Cross, Rochester, N.Y.);^85,68 and TK-1 cells (an alpha integrin^high, L-selectin^low mouse T lymphoma cell line).^85 In selected experiments, human PBL were cultured 6 hr at 37° C. or 40° C. before being applied to tissue sections, as previously described^12. […] Following removal of non adherent cells, glutaraldehyde-fixed specimens were stained with 0.5% toluidine blue and adhesion was scored on 300–500 HEV/PLN or PP specimen or equivalent numbers of small vessels in pancreatic tissue. […]

O=C([O-])CC(O)(CC(=O)[O-])C(=O)[O-].[Na+].[Na+].[Na+] [sodium citrate]
adhesion of isolated human lymphocytes to LN from pregnant mice (human lymphocytes): did not interfere with adhesion

Tumor necrosis factor-alpha
uterine artery modification and decidua [1]: lacked these effects

C[C@]12CC[C@@H]3c4ccc(O)cc4CC[C@H]3[C@@H]1CC[C@@H]2O [E2, 17-beta estradiol]
adhesion of CD56bright human lymphocytes to uterine tissue (uterine tissue): equivalent functional changes | percentage of CD56bright cells among lymphocytes adhering to uterine tissue (enrichment) (uterine tissue; uterine tissue from mouse receiving hormone therapy, starting preparation 2–3% CD56bright): 70% | L-selectin-dependent and α4 integrin-dependent lymphocyte adhesion to endothelium of secondary lymphoid tissues, compared to pregnancy [2]: fully mimicked the functional gains in adhesion promoted by pregnancy | L-selectin-dependent and α4 integrin-dependent lymphocyte adhesion to endothelium of secondary lymphoid tissues, compared to pregnancy ([2]; listed as estrogen): equivalent to pregnancy | adhesion of PBL or TK1 cells to pancreas (pancreas endothelium): no effect | adhesion of PBL or TK1 cells to pancreas (pancreas endothelium; listed as estrogen): no increase

CC(=O)[C@H]1CC[C@H]2[C@@H]3CCC4=CC(=O)CC[C@]4(C)[C@H]3CC[C@]12C [P4, progesterone]
adhesion of CD56bright human lymphocytes to uterine tissue (uterine tissue): equivalent functional changes | adhesion of CD56bright human lymphocytes to uterine tissue (uterine tissue; listed as progesterone): promoted | alpha4 integrin/MAdCAM-1-dependent TK-1 cell adhesion to PP HEV [3]: enhanced, progesterone-dependent, and α4 integrin-dependent, binding | L-selectin-dependent and α4 integrin-dependent lymphocyte adhesion to endothelium of secondary lymphoid tissues, compared to pregnancy [2]: fully mimicked the functional gains in adhesion promoted by pregnancy | L-selectin-dependent and α4 integrin-dependent lymphocyte adhesion to endothelium of secondary lymphoid tissues, compared to pregnancy ([2]; listed as progesterone): equivalent to pregnancy | L-selectin-dependent adhesion of human PBL to PLN HEV ([2]; tissue from Ovx mice treated with hormone, versus placebo (oil) or virgin controls): enhanced L-selectin-dependent binding

B1: recombinant mulFN-γ: recombinant murine interferon-gamma (protein, UniProt P01580 23-155, looked up)
Interferon gamma: HGTVIESLESLNNYFNSSGIDVEEKSLFLDIWRNWQKDGDMKILQSQIISFYLRLFEVLKDNQAISNNISVIESHLITTFFSNSKAKKDAFMSIAKFEVNNPQVQRQAFNELIRVVHQLLPESSLRKRKRSRC
uterine artery modification and decidua [1]: promoted full uterine artery modification and normalized deciduas
